Data: patent US8003660B2, “Modulators of muscarinic receptors” (Vertex Pharmaceuticals Incorporated, priority 2006, dated 2011)

Legend:
Type in all cases: cell-based
M1 muscarinic receptor = target: T1, M1 muscarinic receptor (Homo sapiens, UniProt P11229); test: Functional mobilization of intracellular calcium (FLIPR) in CHO cells expressing M1; details: for M1 Activity: CHO cells expressing M1, FLIPR calcium assay; for Emax: CHO, 100% efficacy = maximum response obtained with the Carbachol control
T1 construct: expressed in transfected cells; host or cells: CHO (M1-CHO)
T1 sequence (P11229 1-460): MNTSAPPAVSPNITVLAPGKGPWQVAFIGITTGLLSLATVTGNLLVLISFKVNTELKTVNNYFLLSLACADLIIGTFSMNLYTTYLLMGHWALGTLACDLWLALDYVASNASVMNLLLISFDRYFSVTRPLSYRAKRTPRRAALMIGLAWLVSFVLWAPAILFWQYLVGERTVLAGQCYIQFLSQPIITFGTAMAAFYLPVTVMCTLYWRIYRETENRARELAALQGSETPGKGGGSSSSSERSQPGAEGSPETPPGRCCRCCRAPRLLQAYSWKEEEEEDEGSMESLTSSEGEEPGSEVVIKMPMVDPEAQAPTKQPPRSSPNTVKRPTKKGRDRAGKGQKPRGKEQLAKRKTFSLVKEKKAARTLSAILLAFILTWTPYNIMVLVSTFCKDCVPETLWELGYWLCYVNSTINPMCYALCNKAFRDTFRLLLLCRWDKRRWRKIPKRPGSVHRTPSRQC
Summary of the method: (§1)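 Recombinant CHO cells loaded with Fluo-3 AM or Calcium 3 dye in pH 7.4 buffer containing 1 mM probenecid, with 0.5% final DMSO. For agonism, compound is added directly. For inhibition, it is preincubated 15 min, or co-applied, before carbachol at EC80. FLIPR fluorescence (ex 488, em 540 nm) is recorded for 60 s.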

M2 muscarinic receptor = target: T2, M2 muscarinic receptor (Homo sapiens, UniProt P08172); test: Functional mobilization of intracellular calcium (FLIPR) in CHO cells expressing M2; details: for M2 Activity: CHO cells expressing M2, FLIPR calcium assay; for Emax: CHO, 100% efficacy = maximum response obtained with the Carbachol control
T2 construct: expressed in transfected cells; host or cells: CHO (M2-CHO)
T2 sequence (P08172 1-466): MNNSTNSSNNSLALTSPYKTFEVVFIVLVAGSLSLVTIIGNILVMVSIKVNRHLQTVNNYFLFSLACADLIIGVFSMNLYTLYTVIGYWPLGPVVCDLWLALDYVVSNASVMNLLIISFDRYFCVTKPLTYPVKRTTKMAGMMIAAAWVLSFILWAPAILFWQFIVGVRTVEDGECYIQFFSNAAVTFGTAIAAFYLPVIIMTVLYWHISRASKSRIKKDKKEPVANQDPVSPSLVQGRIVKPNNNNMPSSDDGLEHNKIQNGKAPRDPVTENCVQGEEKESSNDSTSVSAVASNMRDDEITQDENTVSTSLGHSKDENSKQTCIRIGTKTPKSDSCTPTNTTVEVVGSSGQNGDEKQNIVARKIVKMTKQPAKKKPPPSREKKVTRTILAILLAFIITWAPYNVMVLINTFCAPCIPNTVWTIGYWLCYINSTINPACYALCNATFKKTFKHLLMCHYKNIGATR
Summary of the method: as §1

M3 muscarinic receptor = target: T3, M3 muscarinic receptor (Homo sapiens, UniProt P20309); test: Functional mobilization of intracellular calcium (FLIPR) in CHO cells expressing M3; details: for M3 Activity: CHO cells expressing M3, FLIPR calcium assay; for Emax: CHO, 100% efficacy = maximum response obtained with the Carbachol control
T3 construct: expressed in transfected cells; host or cells: CHO (M3-CHO)
T3 sequence (P20309 whole entry): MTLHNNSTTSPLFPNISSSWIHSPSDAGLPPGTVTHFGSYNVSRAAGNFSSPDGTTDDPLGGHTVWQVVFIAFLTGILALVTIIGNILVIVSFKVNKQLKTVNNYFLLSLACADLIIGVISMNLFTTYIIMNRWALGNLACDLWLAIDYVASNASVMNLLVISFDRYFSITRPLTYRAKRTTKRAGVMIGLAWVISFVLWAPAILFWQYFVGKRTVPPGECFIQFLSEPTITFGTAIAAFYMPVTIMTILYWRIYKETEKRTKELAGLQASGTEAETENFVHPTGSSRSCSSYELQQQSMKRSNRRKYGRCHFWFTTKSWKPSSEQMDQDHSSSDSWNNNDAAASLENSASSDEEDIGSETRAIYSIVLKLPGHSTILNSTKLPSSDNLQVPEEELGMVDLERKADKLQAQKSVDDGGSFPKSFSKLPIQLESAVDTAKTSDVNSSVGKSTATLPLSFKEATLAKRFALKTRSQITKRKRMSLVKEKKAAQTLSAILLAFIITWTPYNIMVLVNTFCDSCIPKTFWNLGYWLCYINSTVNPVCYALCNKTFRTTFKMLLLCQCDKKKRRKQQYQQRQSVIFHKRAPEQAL
Summary of the method: as §1

M4 muscarinic receptor = target: T4, M4 muscarinic receptor (Homo sapiens, UniProt P08173); test: Functional mobilization of intracellular calcium (FLIPR) in CHO cells expressing M4; details: for M4 Activity: CHO cells expressing M4, FLIPR calcium assay; for Emax: CHO, 100% efficacy = maximum response obtained with the Carbachol control
T4 construct: expressed in transfected cells; host or cells: CHO (M4-CHO)
T4 sequence (P08173 1-479): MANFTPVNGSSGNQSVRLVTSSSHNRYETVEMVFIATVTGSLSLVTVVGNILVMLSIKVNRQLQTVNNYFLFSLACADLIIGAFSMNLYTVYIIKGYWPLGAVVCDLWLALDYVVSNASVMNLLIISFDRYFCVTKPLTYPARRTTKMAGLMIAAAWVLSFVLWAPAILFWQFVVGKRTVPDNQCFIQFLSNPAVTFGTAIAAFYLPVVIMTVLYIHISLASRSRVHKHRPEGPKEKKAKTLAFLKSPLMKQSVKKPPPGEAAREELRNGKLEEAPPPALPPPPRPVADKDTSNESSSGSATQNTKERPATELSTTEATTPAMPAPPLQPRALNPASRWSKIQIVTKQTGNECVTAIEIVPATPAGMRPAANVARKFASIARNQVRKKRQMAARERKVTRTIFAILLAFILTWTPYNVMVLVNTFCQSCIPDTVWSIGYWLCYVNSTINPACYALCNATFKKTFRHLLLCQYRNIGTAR
Summary of the method: as §1

Row | SMILES | M1 Activity (M1 muscarinic receptor) | Emax (M1 muscarinic receptor) | M2 Activity (M2 muscarinic receptor) | Emax (M2 muscarinic receptor) | M3 Activity (M3 muscarinic receptor) | Emax (M3 muscarinic receptor) | M4 Activity (M4 muscarinic receptor) | Emax (M4 muscarinic receptor)
1 | CC(C)CCN1CCC2(CC1)C[C@H](NC(=O)N(C)C)c1ccccc12 [compound 293] | + (activity was measured to be greater than 5.0 μM) | < 25% | + (activity was measured to be greater than 5.0 μM) | < 25% | + (activity was measured to be greater than 5.0 μM) | < 25% | + (activity was measured to be greater than 5.0 μM) | < 25%
2 | CC(C)CCN1CCC2(CC1)C[C@H](NC(=O)N1CCCC1)c1ccccc12 [compound 294] | + (activity was measured to be greater than 5.0 μM) | < 25% | + (activity was measured to be greater than 5.0 μM) | < 25% | + (activity was measured to be greater than 5.0 μM) | < 25% | + (activity was measured to be greater than 5.0 μM) | < 25%
3 | CC(C)(C)OC(=O)N1CCC2(CC1)C[C@H](NC(=O)C1CCCC1)c1ccccc12 [compound 295] | + (activity was measured to be greater than 5.0 μM) | < 25% | + (activity was measured to be greater than 5.0 μM) | < 25% | + (activity was measured to be greater than 5.0 μM) | < 25% | + (activity was measured to be greater than 5.0 μM) | < 25%
4 | CN(C)C(=O)N[C@H]1CC2(CCN(CCC(C)(C)C)CC2)c2ccccc21 [compound 297] | + (activity was measured to be greater than 5.0 μM) | < 25% | + (activity was measured to be greater than 5.0 μM) | < 25% | + (activity was measured to be greater than 5.0 μM) | < 25% | + (activity was measured to be greater than 5.0 μM) | < 25%
5 | CN(C)C(=O)N[C@H]1CC2(CCN(C(=O)OC(C)(C)C)CC2)c2ccccc21 [compound 298] | + (activity was measured to be greater than 5.0 μM) | < 25% | + (activity was measured to be greater than 5.0 μM) | < 25% | + (activity was measured to be greater than 5.0 μM) | < 25% | + (activity was measured to be greater than 5.0 μM) | < 25%
6 | CC(C)CCN1CCC2(CC1)C[C@H](NC(=O)C1CCCC1)c1ccccc12 [compound 299] | + (activity was measured to be greater than 5.0 μM) | < 25% | + (activity was measured to be greater than 5.0 μM) | < 25% | + (activity was measured to be greater than 5.0 μM) | < 25% | + (activity was measured to be greater than 5.0 μM) | < 25%
7 | CC(C)(C)CCN1CCC2(CC1)C[C@H](NC(=O)C1CC1)c1ccccc12 [compound 300] | +++ (activity was measured to be less than 2.0 μM) | 25 to 100% | + (activity was measured to be greater than 5.0 μM) | < 25% | + (activity was measured to be greater than 5.0 μM) | < 25% | +++ (activity was measured to be less than 2.0 μM) | < 25%
8 | C=CCCCN1CCC2(CC1)C[C@H](NC(=O)N1CCCC1)c1ccccc12 [compound 301] | + (activity was measured to be greater than 5.0 μM) | < 25% | + (activity was measured to be greater than 5.0 μM) | < 25% | + (activity was measured to be greater than 5.0 μM) | < 25% | + (activity was measured to be greater than 5.0 μM) | < 25%
